This passage reports melting point results from a melting point compilation (Tetko et al.; mined from patent text by program, amines drawn as free bases though some values may be those of a salt).

Bounds are passed on as bounds.

Consider `O=C(O)c1ccc(OCCNC(=O)C2Cc3ccccc3N2S(=O)(=O)c2ccc(-c3ccc(F)cc3)cc2)c(F)c1` (stereo not drawn), for which the melting point – broadly, the temperature, or range, at which the solid turns liquid – was 118 °C.
Regarding `COc1ccc2c(Cc3c(Cl)cncc3Cl)nncc2c1C=Cc1ccccc1`, the melting point was in the range of 180 to 182 °C.
Molecule `CC(=O)C1=CCC2C3CCC4=CC(=O)CCC4(C)C3CCC12C` (stereo not drawn) returned a melting point of 185 to 190 °C.
The figure for `COc1ccc(S(=O)(=O)Nc2cccc(Cl)c2/C=C/c2ccncc2)cc1` is 188 to 190 °C.
The figure for `COC(=O)/C=C(\Oc1ccc(F)cc1)C(=O)OC` is 60 to 61 °C; for `Cc1cc(OC(F)F)c([N+](=O)[O-])cc1S(=O)(=O)N(C)C` it is 125 to 126 °C.
Next, `OC12CC3CC(CC(C3)C1=C1C3CC4CC(C3)CC1C4)C2`: 212 to 213 °C.
`Clc1cccc(CNc2n[nH]c3ncnc(Nc4cccc(Cl)c4)c23)c1` had a melting point of 158 to 163 °C.
As for `COc1ccc(Br)c(C(=O)N2CCN(S(=O)(=O)c3ccc(F)cc3F)CC2)c1`, the melting point stood at 194 °C.
The figure for `Cc1oc(-c2ccccc2)nc1COc1ccc(CON=C(CCCC(=O)O)c2ccccc2)cc1` is 129 to 130 °C.
The molecule `CN(C)c1ccc2nnc(C(=O)O)c(O)c2c1` showed a melting point of more than 330 °C.
`C=CCOc1ccc(CC(=O)NCC(=O)N[C@@H](Cc2c[nH]cn2)C(=O)OC)cc1Cl` had a melting point of 147 to 150 °C.
Next, `COC(=O)Nc1nc2cc(S(=O)CC(C)C)ccc2[nH]1` (stereo not drawn): 198 to 201 °C; `Cc1ccc(Cl)c2c(C)c(C(=O)O)[nH]c12`: 211 to 213 °C; `O=C1c2ccccc2C(=O)N1OCc1cccc(C(F)(F)F)c1`: 106 to 108 °C.
As to `COc1cccc(S(N)(=O)=O)c1C`, the melting point is 193 °C.
The figure for `Cc1nc(C=O)c2n1-c1ccc(Cl)cc1C(c1ccccc1Cl)=NC2` is 237 to 239 °C.
Turning to `CC1COC(c2nsc3ccc(-n4c(=O)cc(C(F)(F)F)n(C)c4=O)cc23)O1` (stereo not drawn), the melting point is 81 to 83 °C.
The figure for `O=C(Nc1ccc(CNc2nc(N3CCC3)nc3ccccc23)cc1)c1ccc(F)cc1` is 249 °C; for `COCCOc1ccc(CCCOC(=O)NS(=O)(=O)c2ccccc2)c(Oc2ncc(C(F)(F)F)cc2Cl)c1` it is 174 to 177 °C; for `CCCNC(=O)N1C2=NC(C)(C)N(CCC)C(=O)N2c2ccccc21` it is 72 to 74 °C.
In the case of `COCOc1cc(CO)ccc1OCc1nc(-c2ccco2)oc1C`, the melting point is 92 to 93 °C.
On to `CC1CN(Cc2ccc(Cl)nc2)C(=C[N+](=O)[O-])N1` (stereo not drawn), for which the melting point was 170 to 174 °C.
As to `OCC1=C(c2cc3c(Cl)cccc3s2)N2CCN=C2S1`, the melting point was in the range of 170 to 172 °C.
`Cc1ccc(NCc2ccc[nH]2)cc1O` displayed a melting point of 115 to 117 °C.
For the molecule `O=C(NCC(O)C(=O)O)c1cc2cc(Cl)ccc2[nH]1` (racemic), the melting point is 214 to 215 °C.
Molecule `CC(NS(=O)(=O)c1ccc(Cl)cc1)P(=O)(OCCCl)OCCCl` (stereo not drawn) returned a melting point of 94.5 to 98 °C.
Next, `O=c1[nH]cnc2c1cnn2-c1ncc(C(F)(F)F)cc1Cl`: 331 °C; `O=C(Nc1ccccc1F)c1ccccn1`: 112 to 115 °C; `Cc1ccc(S(=O)(=O)N=c2ccc(C)cn2-c2cccc(C(F)(F)F)c2)cc1`: 174 °C.
In turn, `CCN(CC)C[C@@H]1CCCN1CC(=O)N1c2ccccc2C(=O)Nc2cccnc21` had a melting point of 192 to 193 °C.
Consider `Cc1ccc(C(=O)COc2cc(C)cc(C)c2C)nc1`, for which the melting point was in the range of 94 to 95 °C.
The figure for `CN(C)NC(=O)Nc1cccc2c1C(=O)c1c-2n[nH]c1-c1ccc(N2CCNCC2)cc1` is 238 °C; for `C#Cc1ccc(C(=O)OC)c(O)c1` it is 62 °C; for `CS(=O)(=O)c1ccc(C2=C(c3ccc(F)cc3)CC3(CCC3)C2)cc1` it is 123 to 124 °C.
`NCC1Cc2cc(C(F)(F)F)cc(-c3cc(F)ccc3F)c2O1` (stereo not drawn) displayed a melting point of more than 250 °C.
`Cc1nc[nH]c1CSCCNC(=N)NS(=O)(=O)c1ccccc1`: the melting point is 149 to 150 °C.
Next, `COc1ccc(-c2cncc(-c3cn(C)c(=O)n3-c3ccc(C(C)(C)C#N)cc3)c2)cc1`: 200 °C; `COC(=O)OCc1cnc(C)c(OC(=O)OC)c1`: 65 °C.
`C=CCOc1cc(NC(=O)C2=C(C(=O)N(C)C)CCCC2)ccc1Cl` returned a melting point of 129 to 131 °C.
The figure for `Cc1ccc(-c2nc(C(F)(F)F)nn2-c2ccc(S(N)(=O)=O)cc2)cc1` is 245 to 247 °C; for `CCC(CC)C(NS(=O)(=O)c1ccc(Cl)s1)c1ncnn1Cc1ccc(OC)cc1` (stereo not drawn) it is 136 to 137 °C.
`COc1ccc2c(c1)c(Cc1cc(=O)n(C3CCCCC3)[nH]1)c(C)n2C(=O)c1ccc(Cl)c(Cl)c1`: the melting point was 104 to 107 °C.
The figure for `CCCCNC(=O)CCC(=O)c1ccccc1` is 78 to 80 °C; for `CC(C)(C)OC(=O)CN(C(=O)CNC(=O)Nc1ccccc1)c1ccccc1C(=O)c1ccccc1` it is 166 to 167 °C; for `CCCc1c(OCc2ccc(C(=O)O)c(OCC)c2)ccc(C(C)=O)c1O` it is 145 to 150 °C.
With `COc1ccc(C=C=C(C)C(=O)O)cc1`, the melting point lay in the range of 105 to 108 °C.
`COCCOc1cc2ncc(C#N)c(Cl)c2cc1O` displayed a melting point of 174 to 175 °C.
Molecule `CCCCCCN1C(=O)C(=CC(=O)O)SC1=Nc1cccc2ccccc12` displayed a melting point of 144 to 145 °C.
Next, `CCSCCOC(=O)C(=O)Nc1nc(-c2ccccc2)cs1`: 148 to 149 °C; `CC(C)[C@H](NC(=O)NCc1cccnc1)C(=O)NC(Cc1ccccc1)C(O)C(Cc1ccccc1)NC(=O)[C@@H](NC(=O)OCc1ccccc1)C(C)C` (stereo partly drawn): 205 to 206 °C.
The figure for `CCC1CC2C3CCc4cc(OC)ccc4C3CCC2(CC)C1=O` (stereo not drawn) is 101 to 102 °C.
Take `O=[N+]([O-])c1cccc(-c2nc(-c3ccccc3)cc3cccnc23)c1`: the melting point is 172 to 175 °C.
The figure for `Nc1c(N=Nc2ccc(Cl)cc2)ccc2c(S(N)(=O)=O)cccc12` is 258 °C; for `Cn1c(-c2ccc3ccccc3c2)n[nH]c1=S` it is 223 to 225 °C.
Molecule `O=C1CCOc2c1ccc(O)c2Cc1ccccc1` had a melting point of 176 °C.
In turn, `COc1ccc(C2=C(c3ccc(S(N)(=O)=O)cc3)CCC2)cc1Cl` came in with a melting point of 179 to 180 °C.
Consider `O=C(Nc1ccc(Cl)c(C(F)(F)F)c1)N1COc2cc(OCc3ccccc3)ccc21`, for which the melting point is 135 to 136 °C.
The figure for `COc1cc(Cc2sc3ccccc3c2S(=O)(=O)Nc2onc(C)c2Br)cc(OC)c1OC` is 154 to 156 °C; for `CC(=O)OCN=C(O)c1cc(C(O)=NCOC(C)=O)c(C(=O)O)cc1C(=O)O` it is 237 to 238 °C; for `CCCc1c(OCCCCCOc2ccc(C(=O)c3ccccc3CC(=O)O)cc2CCC(=O)O)ccc2c1OCCC2=O` it is 105 to 108 °C.
As to `CCN(CC)CCCN(Cc1ccc(COc2cccc3c2CN(C2CCC(=O)NC2=O)C3=O)cc1)C(=O)OC(C)(C)C` (stereo not drawn), the melting point was in the range of 140 to 142 °C.
`ON=C1C2CCC1CN(Cc1ccccc1)C2` returned a melting point of 92 to 95 °C.
Next, `CCCCc1oc2ccc([N+](=O)[O-])cc2c1S(=O)(=O)c1ccc(OCCCBr)cc1`: 101 °C; `CCCCC1(N(C)C)CCC(c2[nH]c3ccc(F)cc3c2C)(c2[nH]c3ccccc3c2CCNC(=O)Nc2ccccc2)CC1` (stereo not drawn): 127 to 132 °C; `Cc1nnn(-c2ccc(F)cc2)c1CCl`: 70 to 71 °C.
In the case of `Cc1cccc(-c2[nH]c(C(C)C)nc2-c2cccc(-c3ccc(NS(=O)(=O)C4CC4)cn3)c2)n1`, the melting point is 133 to 136 °C.
The figure for `Cc1cccc(-c2c(O)c3ccc(Cl)cc3[nH]c2=O)c1` is more than 350 °C.
Molecule `Cc1nc(N)c2nc(CO)n(NC(C)C)c2c1C` had a melting point of 257 to 259 °C.
The figure for `COc1cc2[nH]c(=O)c(=O)n(C)c2cc1OC` is 308 °C; for `CC1(C)CC(n2cncc2C(=O)OC2CCCCC2)c2ccccc2O1` (stereo not drawn) it is 128 °C; for `CCNC(=O)c1cccc(F)c1N` it is 60 °C.
Next, `Cn1c(C(F)(F)F)nn(-c2cc(O)c(C#N)cc2F)c1=O`: 208 °C.
Next, `COc1ccc2c(c1[N+](=O)[O-])CN(C(=O)C(F)(F)F)CC(=O)N2C`: 71 to 74 °C.
For the molecule `Cc1nc2c(OCc3c(Cl)ccc(N(C)C(=O)CN4C(=O)c5ccccc5C4=O)c3Cl)cccc2n1C`, the melting point was 226 to 227 °C.
With `O=C(O)Cc1ccc2c(c1)sc1cc(Cl)ccc12`, the melting point fell in the range of 198 to 200 °C.
Take `NC(=O)c1ccnc(-c2cccc3cc(Cc4cc(F)cc(Cl)c4)sc23)c1`: the melting point fell in the range of 173 to 175 °C.
In turn, `O=C(NCCOCCO)C12CC3CC(CC(C3)C1)C2` had a melting point of 72 to 73 °C.
Turning to `Cc1ccc(Nc2nc(-c3ccccc3)cs2)nc1`, the melting point was in the range of 260 to 264 °C.
Next, `CCC(COC)NC(=O)C(Cc1ccc(OCc2ccccc2)cc1)NC(=O)C(CC(C)C)N(C)Cc1ccc(N(C)C)cc1` (stereo not drawn): 109 to 112 °C; `O=c1cc[nH]c2c([N+](=O)[O-])cc(Cl)cc12`: 238 to 241 °C; `CCCCCCCCCCCCCCCCS(=O)(=O)OC1CNC1`: 91 to 97 °C.
`COC(=O)c1ccc2c(c1)C(C(=O)O)c1ccccc1CO2` (stereo not drawn) gave a melting point of 223 to 224 °C.
`[O-][N+]1=C(c2ccccc2)c2cc(Cl)ccc2C=CC1` registered a melting point of 122 to 123 °C.
Next, `CCCCCCCCOC(=O)C1=CC(=O)C(C(=O)OCCCCCCCC)=C(S(=O)(=O)c2ccc(C)cc2)C1=O`: 75 to 77 °C; `CC1(COc2ccc(CP(=O)(O)O)cc2)CCCCC1`: 170 to 172 °C.
With `NC(=Nc1ccc(-n2cccc2)c(CNC(=O)CCCCC2CCSS2)c1)c1cccs1` (stereo not drawn), the melting point lay within 156 to 158 °C.
`CC(C)(C)NC(=O)N1CCn2c(Br)c(-c3cccc(F)c3)c(C(N)=O)c2C1`: the melting point lay in the range of 184 to 189 °C.
